Assay results taken from patent US20200339691A1, “PROTEINACEOUS MOLECULES AND USES THEREFOR” (priority 2018, published 2020).
Entries after “also recorded” stand apart in the source; their conditions may differ. Where a SMILES comes first, the peptide text is derived from it. The star is where a group is joined. Myristoyl = CCCCCCCCCCCCCC(=O)*

Tests used:
p300 = biological target: T1, p300 (Homo sapiens, UniProt Q09472); test: Immunofluorescence of p300 localization in MDA-MB-231 cells; format: cell-based; conditions: 50 μM
T1 construct: endogenous in cells; host or cells: MDA-MB-231
Protocol: (§1) The effect of P1, P2, P3 and P4 (synthesized in accordance with Example 5) on p300 localization was examined using confocal laser scanning microscopy. […] Cover slips were mounted on glass microscope slides with ProLong Diamond Antifade reagent (Life Technologies). Protein targets were localized by confocal laser scanning microscopy as described above. TNFI and PCC(r) were calculated using ImageJ software as previously described.

PD-1 = test: Immunofluorescence of PD-1 in Jurkat T-cells; format: cell-based; conditions: 50 μM, 72 hours, relative to the control
Protocol: 1×10^4 Jurkat T-cells were seeded onto coverslips in 12 well plates with DMEM media. Cells were treated with 50 μM P1, P2, P3 (synthesized in accordance with Example 5) or vehicle (water) for 72 hours. Cells were fixed with 3.7% formaldehyde and permeabilized with 2% Triton-X-100, then probed with a primary mouse antibody to PD-1 directly conjugated to Alexa-Fluor 647. Confocal laser scanning microscopy was used to measure the TNFI, TCFI and Fn/c as described above. At least 20 individual cells were analyzed per sample.

induced MCF7 cells = test: FACS CSC inhibition in induced MCF7 cells; format: cell-based, human; conditions: induced MCF7 cells (PMA/TGF-β), 50 μM peptide, 48 hours
Protocol: (§2) P1 Analogues were synthesized in accordance with the procedure of Example 5. 4×10^4 MDA-MB-231 cells or 1×10^4 induced or non-induced MCF7 cells were seeded in a 12 well plate with 1 mL complete media overnight. Induced MCF7 cells were prepared by stimulating cells with PMA/TGF-β and incubating for 12 hours. Cells were treated with 50 μM test peptide (dissolved in water) for 48 hours. Cells were then washed twice with 1 mL PBS and harvested by trypsinisation. Non-adherent cells were removed during the washing steps. Adherent cells were collected, and were subsequently stained with anti-human CD44, CD24 and Hoechst 33342 antibodies on ice for 30 mins. FACS was performed on BD FACS LSRII to measure the percentage of CD44^hiCD24^lo CSCs by dividing CD44^hiCD24^lo events by total live cell counts (Hoechst negative population) (as described in Fillmore and Kuperwasser (2007) Breast Cancer Res, 9: 303). The percentage of viable cells was calculated by dividing total live cell events by total single cells as described previously (Siemann and Keng (1986), Cancer Res, 46: 3556-3559).

[1] = system: CD44^hiCD24^lo CSCs in MDA-MB-231 cells; test: FACS analysis of CD44^hiCD24^lo cancer stem cells in MDA-MB-231 cells treated with P1 analogues; format: cell-based, human; conditions: 50 μM peptide, 48 hours; for CD44^hiCD24^lo CSCs (%) / COI, Live Single CD44^hiCD24^lo CSCs (Cell Count): n = 1; for Average Inhibition of CSCs (%) / CD44^hiCD24^lo CSCs (%) Repeat 1 / CD44^hiCD24^lo CSCs (%) Repeat 2 / CD44^hiCD24^lo CSCs (%) Repeat 3: n = 3
Protocol: Analogues of P1 (Table 6) were designed and synthesized in accordance with the procedure of Example 5. The ability of these analogues to inhibit cancer stem cells was determined using FACS analysis on MDA-MB-231 cells, which constitutively contain approximately 90% CD44^hiCD24^lo cancer stem cells, treated with the peptides.
(§3) Non-adherent cells were removed during the washing steps.

EGFR = test: Immunofluorescence of EGFR in MDA-MB-231 cells; format: cell-based, human; conditions: 50 μM, 72 hours
Protocol: (§4) 1×10^4 MDA-MB-231 cells were seeded onto coverslips in 12 well plates with DMEM media. Cells were treated with 50 μM P1, P2, P3 or P4 (synthesized in accordance with Example 5) or vehicle (water) for 72 hours. Cells were fixed with 3.7% formaldehyde and permeabilized with 2% Triton-X-100, then probed with primary mouse antibodies to CSV, DMNT1, H3K9me3 or 5-methylcytosine; primary goat antibodies to SNAI1, SETDB1 or ABCB5; or primary rabbit antibodies to PD-L1, EGFR, EHMT2; followed by the corresponding secondary antibody conjugated to anti-mouse Alexa-Fluor 568, anti-goat Alexa-Fluor 633 or anti-rabbit Alexa-Fluor 488. Confocal laser scanning microscopy was used to measure the TFI, TNFI and TCFI as described above. At least 20 individual cells were analyzed per sample.

MDA-MB-231 cells [2] = format: cell-based, human; conditions: 50 μM peptide, 48 hours, n = 1
Text: as §3

[3] = system: acetylated PD-L1 and p300; test: Colocalization (PCC(r)) of acetylated PD-L1 and p300 in MDA-MB-231 cells; format: cell-based, human; conditions: 50 μm
Protocol: as §1

[4] = system: cell surface vimentin (CSV); test: Immunofluorescence of CSV in MDA-MB-231 cells, Example 9; format: cell-based, human; conditions: 50 μM, 72 hours
Protocol: as §4

SETDB1 = test: Immunofluorescence of SETDB1 in MDA-MB-231 cells; format: cell-based, human; conditions: 50 μM, 72 hours
Protocol: (§5) Cells were treated with 50 μM P1, P2, P3 or P4 (synthesized in accordance with Example 5) or vehicle (water) for 72 hours. […] Confocal laser scanning microscopy was used to measure the […] and TCFI as described above. At least 20 individual cells were analyzed per sample.

PD-L1 = test: Immunofluorescence of PD-L1 in MDA-MB-231 cells, Example 14; format: cell-based, human; conditions: 50 μM, 72 hours
Protocol: 1×10^4 MDA-MB-231 cells were treated with 50 μM P1, P2, P3 (synthesized in accordance with Example 5) or vehicle (water) for 72 hours. Cells were fixed with 3.7% formaldehyde and permeabilized with 2% Triton-X-100, then probed with a primary rabbit antibody to PD-L2, primary goat antibody to PD-L1 and primary mouse antibody to CSV, followed by the corresponding secondary antibody conjugated to anti-mouse Alexa-Fluor 568, anti-goat Alexa-Fluor 633 or anti-rabbit Alexa-Fluor 488. Confocal laser scanning microscopy was used to measure the TNFI and TCFI as described above. At least 20 individual cells were analyzed per sample.

MDA-MB-231 cells [5] = test: FACS analysis of the cancer stem cell phenotype (CD44^high/CD24^low) in response to P1, P2 and P3; format: cell-based, human; conditions: 6.25-400 μM, 72 hours
Protocol: 5×10^4 MDA-MB-231 cells were seeded with 1 mL of complete DMEM in 12 well plates overnight. […] Samples were harvested by trypsinization followed by washing with DPBS containing 2% HI-FBS. FACS staining was performed using anti-human CD44-APC, anti-human CD24-PE, Hoechst and anti-human EpCAM antibody cocktails. Data was collected from a BD-FACSLSR-II flow cytometer. Treestar FlowJo was used for data analysis.

DMNTI = test: Immunofluorescence of DMNTI in MDA-MB-231 cells; format: cell-based, human; conditions: 50 μM, 72 hours
Protocol: as §5

[6] = system: CD44^hiCD24^lo CSCs in MCF7 cells; test: FACS analysis of CD44^hiCD24^lo CSCs in MCF7 cells; format: cell-based, human; conditions: 50 μM peptide, 48 hours
Protocol: as §2
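Wherever COI, Live Single Cells (Cell Count) is given: live means Hoechst-negative events among single cells.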

T1 sequence (Q09472 whole entry): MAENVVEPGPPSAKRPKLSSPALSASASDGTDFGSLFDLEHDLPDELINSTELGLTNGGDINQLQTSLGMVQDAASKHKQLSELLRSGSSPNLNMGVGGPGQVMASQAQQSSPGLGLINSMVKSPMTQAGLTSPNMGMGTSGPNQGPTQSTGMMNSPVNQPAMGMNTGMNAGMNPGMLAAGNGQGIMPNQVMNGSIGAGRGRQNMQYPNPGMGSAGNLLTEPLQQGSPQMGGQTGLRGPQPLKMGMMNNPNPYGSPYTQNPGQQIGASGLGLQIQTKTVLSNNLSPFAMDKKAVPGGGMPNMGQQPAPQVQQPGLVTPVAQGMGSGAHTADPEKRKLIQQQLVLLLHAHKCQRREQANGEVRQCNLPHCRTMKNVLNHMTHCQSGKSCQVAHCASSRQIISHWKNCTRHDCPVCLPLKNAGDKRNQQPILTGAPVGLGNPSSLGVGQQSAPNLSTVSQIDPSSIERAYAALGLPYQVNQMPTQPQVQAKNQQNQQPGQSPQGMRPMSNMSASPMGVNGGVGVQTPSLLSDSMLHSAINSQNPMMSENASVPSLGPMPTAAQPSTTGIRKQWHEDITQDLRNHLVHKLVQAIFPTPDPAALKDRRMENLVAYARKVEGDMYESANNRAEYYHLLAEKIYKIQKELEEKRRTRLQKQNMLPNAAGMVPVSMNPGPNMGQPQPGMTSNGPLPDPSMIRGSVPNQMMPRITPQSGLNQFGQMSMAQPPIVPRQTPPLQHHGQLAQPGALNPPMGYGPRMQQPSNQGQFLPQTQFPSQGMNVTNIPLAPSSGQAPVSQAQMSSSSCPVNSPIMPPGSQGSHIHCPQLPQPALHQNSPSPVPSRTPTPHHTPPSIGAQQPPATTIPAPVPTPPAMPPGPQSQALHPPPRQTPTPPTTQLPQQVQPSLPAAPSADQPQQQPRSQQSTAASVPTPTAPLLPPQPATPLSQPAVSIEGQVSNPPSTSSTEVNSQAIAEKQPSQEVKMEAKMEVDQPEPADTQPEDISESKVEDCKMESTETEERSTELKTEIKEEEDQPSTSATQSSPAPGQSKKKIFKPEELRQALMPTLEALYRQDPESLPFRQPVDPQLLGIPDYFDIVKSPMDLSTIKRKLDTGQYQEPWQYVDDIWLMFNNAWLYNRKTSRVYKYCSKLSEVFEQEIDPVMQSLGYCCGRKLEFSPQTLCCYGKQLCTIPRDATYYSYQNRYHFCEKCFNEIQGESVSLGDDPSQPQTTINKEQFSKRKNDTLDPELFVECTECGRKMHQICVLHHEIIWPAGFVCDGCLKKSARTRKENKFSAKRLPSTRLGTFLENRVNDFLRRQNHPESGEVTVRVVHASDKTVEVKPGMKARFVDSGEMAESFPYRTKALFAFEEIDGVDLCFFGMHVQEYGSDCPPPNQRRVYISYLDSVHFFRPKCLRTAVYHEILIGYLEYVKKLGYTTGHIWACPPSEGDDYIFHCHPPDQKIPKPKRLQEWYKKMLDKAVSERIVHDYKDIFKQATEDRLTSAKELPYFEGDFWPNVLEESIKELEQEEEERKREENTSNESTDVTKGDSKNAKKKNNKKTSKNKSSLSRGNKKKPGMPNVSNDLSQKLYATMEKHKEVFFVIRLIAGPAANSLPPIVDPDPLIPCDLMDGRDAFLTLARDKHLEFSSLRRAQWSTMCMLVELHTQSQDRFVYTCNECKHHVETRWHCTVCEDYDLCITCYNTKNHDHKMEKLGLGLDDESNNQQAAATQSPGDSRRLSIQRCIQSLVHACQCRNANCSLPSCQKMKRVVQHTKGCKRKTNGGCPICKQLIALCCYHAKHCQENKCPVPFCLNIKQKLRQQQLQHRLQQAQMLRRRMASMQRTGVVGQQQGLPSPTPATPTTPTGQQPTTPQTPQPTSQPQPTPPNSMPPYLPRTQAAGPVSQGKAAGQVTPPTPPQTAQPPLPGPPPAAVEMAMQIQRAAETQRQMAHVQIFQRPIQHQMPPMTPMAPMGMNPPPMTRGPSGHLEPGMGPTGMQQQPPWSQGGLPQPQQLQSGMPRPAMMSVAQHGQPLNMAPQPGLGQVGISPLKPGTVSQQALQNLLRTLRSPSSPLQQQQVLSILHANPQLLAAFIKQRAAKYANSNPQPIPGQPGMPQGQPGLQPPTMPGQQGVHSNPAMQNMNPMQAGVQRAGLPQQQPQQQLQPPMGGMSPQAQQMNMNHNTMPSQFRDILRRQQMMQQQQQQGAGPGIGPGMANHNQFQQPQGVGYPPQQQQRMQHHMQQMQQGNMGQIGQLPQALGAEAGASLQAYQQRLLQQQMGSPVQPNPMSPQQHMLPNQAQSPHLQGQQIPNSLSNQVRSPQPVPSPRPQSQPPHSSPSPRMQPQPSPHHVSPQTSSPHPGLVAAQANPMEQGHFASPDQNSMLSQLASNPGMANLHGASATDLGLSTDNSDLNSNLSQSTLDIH

SMILES	p300 nuclear expression (p300)	PD-1 nuclear localization (PD-1)	CSC inhibition (%) (induced MCF7 cells)	Inhibition of CSCs (%) Repeat 1 [1] [%]	Inhibition of CSCs (%) Repeat 2 [1] [%]	Inhibition of CSCs (%) Repeat 3 [1] [%]	CD44^hiCD24^lo CSCs (%) [1] [%]	COI, Live Single CD44^hiCD24^lo CSCs (Cell Count) [1]	Average Inhibition of CSCs (%) [1] [%]	CD44^hiCD24^lo CSCs (%) Repeat 1 [1] [%]	CD44^hiCD24^lo CSCs (%) Repeat 2 [1] [%]	CD44^hiCD24^lo CSCs (%) Repeat 3 [1] [%]	expression of EGFR (EGFR)	COI (Cell Count) (MDA-MB-231 cells [2])	COI, Live Single Cells (Cell Count) (MDA-MB-231 cells [2])	COI, Single (Cell Count) (MDA-MB-231 cells [2])	Total Cell Count (MDA-MB-231 cells [2])	Viable Cells (%) (MDA-MB-231 cells [2])	colocalization of acetylated PD-L1 and p300 [3]	expression of CSV [4]	also measured
CCCCCCCCCCCCCC(=O)N[C@@H](CC(C)C)C(=O)N[C@H](C(=O)N[C@@H](Cc1ccccc1)C(=O)N[C@H](C(=O)N[C@@H](Cc1ccccc1)C(=O)N[C@@H](CCCNC(=N)N)C(=O)N[C@@H](CC(C)C)C(=O)N[C@@H](CCCNC(=N)N)C(=O)N[C@@H](CCCCN)C(=O)NCC(=O)N[C@@H](CCCNC(=N)N)C(=O)N[C@@H](CCSC)C(=O)N[C@@H](CCSC)C(=O)N[C@@H](CC(=O)O)C(=O)N[C@H](C(=O)N[C@@H](CCCCN)C(=O)N[C@@H](CCCCN)C(N)=O)C(C)C)[C@@H](C)CC)[C@@H](C)O [Peptide P1, Myristoyl-LTFIFRLRKGRMMDVKK-NH2] (Myristoyl-LTFIFRLRKGRMMDVKK-NH2)	significantly decreased	significantly inhibited	38.10	93.33	89.97	90.28	15.77	220	91.19	5.98	9.00	8.72	uniformly inhibited	2038	1395	1523	4339	91.60	significantly decreased	uniformly inhibited	expression / nuclear localization of SETDB1 (SETDB1): significantly abrogated; nuclear localization of PD-L1 (PD-L1): significantly inhibited; cancer stem cell phenotype (CD44^high/CD24^low) (MDA-MB-231 cells [5]): significantly inhibited; expression / nuclear localization of DMNTI (DMNTI): significantly abrogated; CD44^hiCD24^lo CSC % [6]: 4.36%; COI/Single Cells/Live/CD44^hiCD24^lo CSCs Count [6]: 233
CCCCCCCCCCCCCC(=O)N[C@@H](CC(C)C)C(=O)N[C@H](C(=O)N[C@@H](Cc1ccccc1)C(=O)N[C@H](C(=O)N[C@@H](Cc1ccccc1)C(=O)N[C@@H](CCCNC(=N)N)C(=O)N[C@@H](CC(C)C)C(=O)N[C@@H](CCCNC(=N)N)C(=O)N[C@@H](CCC(N)=O)C(=O)NCC(=O)N[C@@H](CCCNC(=N)N)C(=O)N[C@@H](CCSC)C(=O)N[C@@H](CCSC)C(=O)N[C@@H](CC(=O)O)C(=O)N[C@H](C(=O)N[C@@H](CCCCN)C(=O)N[C@@H](CCCCN)C(N)=O)C(C)C)[C@@H](C)CC)[C@@H](C)O [Peptide P2, Myristoyl-LTFIFRLRQGRMMDVKK-NH2] (Myristoyl-LTFIFRLRQGRMMDVKK-NH2)	significantly decreased	significantly inhibited	59.93	79.10	82.65	85.94	13.99	616	82.56	18.73	15.56	12.62	uniformly inhibited	6317	4402	4580	12706	96.11	significantly decreased	uniformly inhibited	expression / nuclear localization of SETDB1 (SETDB1): significantly abrogated; nuclear localization of PD-L1 (PD-L1): significantly inhibited; cancer stem cell phenotype (CD44^high/CD24^low) (MDA-MB-231 cells [5]): significantly inhibited; expression / nuclear localization of DMNTI (DMNTI): significantly abrogated; CD44^hiCD24^lo CSC % [6]: 2.82%; COI/Single Cells/Live/CD44^hiCD24^lo CSCs Count [6]: 123
CCCCCCCCCCCCCC(=O)N[C@@H](CC(C)C)C(=O)N[C@H](C(=O)N[C@@H](Cc1ccccc1)C(=O)N[C@H](C(=O)N[C@@H](Cc1ccccc1)C(=O)N[C@@H](CCCNC(=N)N)C(=O)N[C@@H](CC(C)C)C(=O)N[C@@H](CCCNC(=N)N)C(=O)N[C@@H](CCCCNC(C)=O)C(=O)NCC(=O)N[C@@H](CCCNC(=N)N)C(=O)N[C@@H](CCSC)C(=O)N[C@@H](CCSC)C(=O)N[C@@H](CC(=O)O)C(=O)N[C@H](C(=O)N[C@@H](CCCCN)C(=O)N[C@@H](CCCCN)C(N)=O)C(C)C)[C@@H](C)CC)[C@@H](C)O [Peptide P3, Myristoyl-LTFIFRLRK(Ac)GRMMDVKK-NH2] (Myristoyl-LTFIFRLRK(Ac)GRMMDVKK-NH2)	significantly decreased; also recorded: greatest effect	significantly inhibited	53.67	92.77	91.10	87.85	8.04	410	90.57	6.48	7.99	10.90	uniformly inhibited	6874	5099	5237	20311	97.36	significantly decreased	uniformly inhibited	expression / nuclear localization of SETDB1 (SETDB1): significantly abrogated; nuclear localization of PD-L1 (PD-L1): significantly inhibited; cancer stem cell phenotype (CD44^high/CD24^low) (MDA-MB-231 cells [5]): significantly inhibited; also recorded: greatest inhibition; expression / nuclear localization of DMNTI (DMNTI): significantly abrogated; CD44^hiCD24^lo CSC % [6]: 3.26%; COI/Single Cells/Live/CD44^hiCD24^lo CSCs Count [6]: 162
